Reference: patent publication US20240325544A1, “CATIONIC LIPID FOR COVALENT MODIFICATION OF PEPTIDES” (PharmalN Corporation, priority 2023, published 2024)
Bridge positions count the residues as written; N and C are the ends. Peptide text beside a SMILES is read from it. * marks the point of attachment. Stearoyl = CCCCCCCCCCCCCCCCCC(=O)*; Palmitoyl = CCCCCCCCCCCCCCCC(=O)*; Hexanoyl = CCCCCC(=O)*

Test system: Sprague Dawley rats
Test: Dose-range finding of cationic alkyl modified CNP, subcutaneous bolus in rats (Table 2)
Method: Animal care and treatment: Male Sprague Dawley rats aged 8 to 10 weeks (Charles River, Hollister, CA) were housed in groups of two (n=3/group) in disposable polypropylene cages with rodent cob bedding at the PharmaIN animal facility. Animals had ad libitum access to food (LabDiet Pico Rodent #5053; Animal Specialties, Woodburn, OR) and water. Temperature (68-74° F.) and humidity (30-60%) were maintained within a controlled range, and a 12-hour light/dark cycle was used. […] Animals were monitored closely during the first 4 hours following injection, then hourly throughout the rest of the day for any signs of swelling or discoloration (dilatory side effect), lethargy (side effect), ataxia (ataxia is used as a marker of toxicity). Rats were allowed a 1-week wash-out period between bolus doses. Following final observations, animals were humanely euthanized through CO2 asphyxiation.

CCCCCCCCCCCCCCCCCC(=O)N[C@@H](CCCCN)C(=O)N[C@@H](CCCCN)C(=O)N[C@@H](CCCCN)C(=O)N[C@@H](CCCCN)C(=O)NCC(=O)NCC(=O)NCC(=O)NCC(=O)N[C@@H](CC(C)C)C(=O)N[C@@H](CO)C(=O)N[C@@H](CCCCN)C(=O)NCC(=O)N[C@H]1CSSC[C@@H](C(=O)O)NC(=O)CNC(=O)[C@H](CC(C)C)NC(=O)CNC(=O)[C@H](CO)NC(=O)[C@H](CCC(N)=O)NC(=O)[C@H](CO)NC(=O)CNC(=O)[C@H]([C@@H](C)CC)NC(=O)[C@H](CCCNC(=N)N)NC(=O)[C@H](CC(=O)O)NC(=O)[C@H](CC(C)C)NC(=O)[C@H](CCCCN)NC(=O)[C@H](CC(C)C)NC(=O)CNC(=O)[C@H](Cc2ccccc2)NC1=O [SEQ ID NO: 23] (Stearoyl-KKKKGGGGLSKGCFGLKLDRIGSQSGLGC-OH; disulfide 13-29; C-terminus assumed)
Ataxia** in n = 3 (up to 10 mg/kg): ≥3 mg/kg | Lethargy* in n = 3 (up to 10 mg/kg): ≥1 mg/kg | Swelling and/or Discoloration in n = 3 (up to 10 mg/kg): ≥1 mg/kg | Ataxia** in n = 3 (value in parentheses): (0.94) μmol/kg | Lethargy* in n = 3 (value in parentheses): (0.31) μmol/kg | Swelling and/or Discoloration in n = 3 (value in parentheses): (0.31) μmol/kg

CCCCCC(=O)N[C@@H](CCCCN)C(=O)N[C@@H](CCCCN)C(=O)NCC(=O)NCC(=O)NCC(=O)N[C@@H](CCCNC(=N)N)C(=O)N[C@@H](CCCNC(=N)N)C(=O)NCC(=O)N[C@@H](CC(C)C)C(=O)N[C@@H](CO)C(=O)N[C@@H](CCCCN)C(=O)NCC(=O)N[C@H]1CSSC[C@@H](C(=O)O)NC(=O)CNC(=O)[C@H](CC(C)C)NC(=O)CNC(=O)[C@H](CO)NC(=O)[C@H](CCC(N)=O)NC(=O)[C@H](CO)NC(=O)CNC(=O)[C@H]([C@@H](C)CC)NC(=O)[C@H](CCCNC(=N)N)NC(=O)[C@H](CC(=O)O)NC(=O)[C@H](CC(C)C)NC(=O)[C@H](CCCCN)NC(=O)[C@H](CC(C)C)NC(=O)CNC(=O)[C@H](Cc2ccccc2)NC1=O [SEQ ID NO: 27] (Hexanoyl-KKGGGRRGLSKGCFGLKLDRIGSQSGLGC-OH; disulfide 13-29; C-terminus assumed)
Ataxia** in n = 3 (up to 10 mg/kg): ≥5 mg/kg | Lethargy* in n = 3 (up to 10 mg/kg): ≥5 mg/kg | Swelling and/or Discoloration in n = 3 (up to 10 mg/kg): ≥5 mg/kg | Ataxia** in n = 3 (value in parentheses): (1.6) μmol/kg | Lethargy* in n = 3 (value in parentheses): (1.6) μmol/kg | Swelling and/or Discoloration in n = 3 (value in parentheses): (1.6) μmol/kg

CCCCCCCCCCCCCCCC(=O)NCC(=O)NCC(=O)NCC(=O)N[C@@H](CCCCN)C(=O)N[C@@H](CCCCN)C(=O)N[C@@H](CCCCN)C(=O)N[C@@H](CCCCN)C(=O)NCC(=O)N[C@@H](CC(C)C)C(=O)N[C@@H](CO)C(=O)N[C@@H](CCCCN)C(=O)NCC(=O)N[C@H]1CSSC[C@@H](C(=O)O)NC(=O)CNC(=O)[C@H](CC(C)C)NC(=O)CNC(=O)[C@H](CO)NC(=O)[C@H](CCC(N)=O)NC(=O)[C@H](CO)NC(=O)CNC(=O)[C@H]([C@@H](C)CC)NC(=O)[C@H](CCCNC(=N)N)NC(=O)[C@H](CC(=O)O)NC(=O)[C@H](CC(C)C)NC(=O)[C@H](CCCCN)NC(=O)[C@H](CC(C)C)NC(=O)CNC(=O)[C@H](Cc2ccccc2)NC1=O [SEQ ID NO: 25] (Palmitoyl-GGGKKKKGLSKGCFGLKLDRIGSQSGLGC-OH; disulfide 13-29; C-terminus assumed)
Ataxia** in n = 3 (up to 10 mg/kg): ≥5 mg/kg | Lethargy* in n = 3 (up to 10 mg/kg): ≥5 mg/kg | Swelling and/or Discoloration in n = 3 (up to 10 mg/kg): ≥5 mg/kg | Ataxia** in n = 3 (value in parentheses): (1.6) μmol/kg | Lethargy* in n = 3 (value in parentheses): (1.6) μmol/kg | Swelling and/or Discoloration in n = 3 (value in parentheses): (1.6) μmol/kg
